Experimental data published in ChEMBL document CHEMBL4428075, “New antiproliferative 7-(4-(N-substituted carbamoylmethyl)piperazin-1-yl) derivatives of ciprofloxacin induce cell cycle arrest at G2/M phase” (Bioorg Med Chem, 2016).

What was measured:
[1] = tested on: A549; assay: Antiproliferative activity against human A549 cells after 24 hrs by BrdU incorporation assay; assay type: functional, cell-based; settings: A549, 24 h
[2] = tested on: OVCAR-8; assay: Antiproliferative activity against human OVCAR8 cells at 10^-5 M after 48 hrs by SRB assay; assay type: functional; settings: OVCAR-8, 48 h, read-out: GI
[3] = tested on: MCF7; assay: Antiproliferative activity against human MCF7 cells at 10^-5 M after 48 hrs by SRB assay; assay type: functional; settings: MCF7, 48 h, read-out: GI
[4] = tested on: SNB-75; assay: Antiproliferative activity against human SNB75 cells at 10^-5 M after 48 hrs by SRB assay; assay type: functional; settings: SNB-75, 48 h, read-out: GI
[5] = tested on: BT-549; assay: Antiproliferative activity against human BT549 cells at 10^-5 M after 48 hrs by SRB assay; assay type: functional; settings: BT-549, 48 h, read-out: GI
[6] = tested on: SK-MEL-2; assay: Antiproliferative activity against human SK-MEL-2 cells at 10^-5 M after 48 hrs by SRB assay; assay type: functional; settings: SK-MEL-2, 48 h, read-out: GI
[7] = tested on: NCI-H226; assay: Antiproliferative activity against human NCI-H226 cells at 10^-5 M after 48 hrs by SRB assay; assay type: functional; settings: NCI-H226, 48 h, read-out: GI
[8] = tested on: CCRF-CEM; assay: Antiproliferative activity against human CCRF-CEM cells at 10^-5 M after 48 hrs by SRB assay; assay type: functional; settings: read-out: GI
[9] = tested on: U-251; assay: Antiproliferative activity against human U251 cells at 10^-5 M after 48 hrs by SRB assay; assay type: functional; settings: U-251, 48 h, read-out: GI
[10] = tested on: OVCAR-4; assay: Antiproliferative activity against human OVCAR4 cells at 10^-5 M after 48 hrs by SRB assay; assay type: functional; settings: OVCAR-4, 48 h, read-out: GI
[11] = tested on: COLO 205; assay: Antiproliferative activity against human COLO205 cells at 10^-5 M after 48 hrs by SRB assay; assay type: functional; settings: COLO 205, 48 h, read-out: GI
[12] = tested on: SR; assay: Antiproliferative activity against human SR cells at 10^-5 M after 48 hrs by SRB assay; assay type: functional; settings: read-out: GI
[13] = tested on: ACHN; assay: Antiproliferative activity against human ACHN cells at 10^-5 M after 48 hrs by SRB assay; assay type: functional; settings: read-out: GI
[14] = tested on: PC-3; assay: Antiproliferative activity against human PC3 cells at 10^-5 M after 48 hrs by SRB assay; assay type: functional; settings: PC-3, 48 h, read-out: GI
[15] = tested on: CAKI-1; assay: Antiproliferative activity against human Caki1 cells at 10^-5 M after 48 hrs by SRB assay; assay type: functional; settings: CAKI-1, 48 h, read-out: GI
[16] = tested on: HT-29; assay: Antiproliferative activity against human HT-29 cells at 10^-5 M after 48 hrs by SRB assay; assay type: functional; settings: HT-29, 48 h, read-out: GI
[17] = tested on: Hs-578T; assay: Antiproliferative activity against human Hs 578T cells at 10^-5 M after 48 hrs by SRB assay; assay type: functional; settings: read-out: GI
[18] = tested on: UACC-62; assay: Antiproliferative activity against human UACC62 cells at 10^-5 M after 48 hrs by SRB assay; assay type: functional; settings: UACC-62, 48 h, read-out: GI
[19] = tested on: M14; assay: Antiproliferative activity against human M14 cells at 10^-5 M after 48 hrs by SRB assay; assay type: functional; settings: M14, 48 h, read-out: GI
[20] = tested on: 786-0; assay: Antiproliferative activity against human 786-0 cells at 10^-5 M after 48 hrs by SRB assay; assay type: functional; settings: 786-0, 48 h, read-out: GI
[21] = tested on: UO-31; assay: Antiproliferative activity against human UO31 cells at 10^-5 M after 48 hrs by SRB assay; assay type: functional; settings: UO-31, 48 h, read-out: GI
[22] = tested on: SF-295; assay: Antiproliferative activity against human SF295 cells at 10^-5 M after 48 hrs by SRB assay; assay type: functional; settings: SF-295, 48 h, read-out: GI
[23] = tested on: SK-MEL-28; assay: Antiproliferative activity against human SK-MEL-28 cells at 10^-5 M after 48 hrs by SRB assay; assay type: functional; settings: SK-MEL-28, 48 h, read-out: GI
[24] = tested on: HCT-116; assay: Antiproliferative activity against human HCT116 cells at 10^-5 M after 48 hrs by SRB assay; assay type: functional; settings: HCT-116, 48 h, read-out: GI
[25] = tested on: K562; assay: Antiproliferative activity against human K562 cells at 10^-5 M after 48 hrs by SRB assay; assay type: functional; settings: K562, 48 h, read-out: GI
[26] = tested on: Malme-3M; assay: Antiproliferative activity against human MALME-3M cells at 10^-5 M after 48 hrs by SRB assay; assay type: functional; settings: read-out: GI
[27] = tested on: HOP-62; assay: Antiproliferative activity against human HOP62 cells at 10^-5 M after 48 hrs by SRB assay; assay type: functional; settings: HOP-62, 48 h, read-out: GI
[28] = tested on: EKVX; assay: Antiproliferative activity against human EKVX cells at 10^-5 M after 48 hrs by SRB assay; assay type: functional; settings: read-out: GI
[29] = tested on: UACC-257; assay: Antiproliferative activity against human UACC257 cells at 10^-5 M after 48 hrs by SRB assay; assay type: functional; settings: UACC-257, 48 h, read-out: GI
[30] = tested on: SK-MEL-5; assay: Antiproliferative activity against human SK-MEL-5 cells at 10^-5 M after 48 hrs by SRB assay; assay type: functional; settings: SK-MEL-5, 48 h, read-out: GI
[31] = tested on: NCI-H322M; assay: Antiproliferative activity against human NCI-H322M cells at 10^-5 M after 48 hrs by SRB assay; assay type: functional; settings: read-out: GI
[32] = tested on: SNB-19; assay: Antiproliferative activity against human SNB19 cells at 10^-5 M after 48 hrs by SRB assay; assay type: functional; settings: SNB-19, 48 h, read-out: GI
[33] = tested on: WI-38; assay: Antiproliferative activity against human WI38 cells after 24 hrs by BrdU incorporation assay; assay type: cell-based; settings: WI-38, 24 h
[34] = tested on: MDA-MB-468; assay: Antiproliferative activity against human MDA-MB-468 cells at 10^-5 M after 48 hrs by SRB assay; assay type: functional; settings: MDA-MB-468, 48 h, read-out: GI
[35] = tested on: HCT-15; assay: Antiproliferative activity against human HCT15 cells at 10^-5 M after 48 hrs by SRB assay; assay type: functional; settings: HCT-15, 48 h, read-out: GI
[36] = tested on: RPMI-8226; assay: Antiproliferative activity against human RPMI8226 cells at 10^-5 M after 48 hrs by SRB assay; assay type: functional; settings: RPMI-8226, 48 h, read-out: GI
[37] = tested on: T47D; assay: Antiproliferative activity against human T47D cells at 10^-5 M after 48 hrs by SRB assay; assay type: functional; settings: read-out: GI
[38] = tested on: SF-539; assay: Antiproliferative activity against human SF539 cells at 10^-5 M after 48 hrs by SRB assay; assay type: functional; settings: SF-539, 48 h, read-out: GI
[39] = tested on: HL-60(TB); assay: Antiproliferative activity against human HL-60(TB) cells at 10^-5 M after 48 hrs by SRB assay; assay type: functional; settings: HL-60, 48 h, read-out: GI
[40] = tested on: LOX IMVI; assay: Antiproliferative activity against human LOXIMVI cells at 10^-5 M after 48 hrs by SRB assay; assay type: functional; settings: read-out: GI

SMILES | IC50 [1] [µM] | inhibition of growth at 10 µM [2] [%] | inhibition of growth at 10 µM [3] [%] | inhibition of growth at 10 µM [4] [%] | inhibition of growth at 10 µM [5] [%] | inhibition of growth at 10 µM [6] [%] | inhibition of growth at 10 µM [7] [%] | inhibition of growth at 10 µM [8] [%] | inhibition of growth at 10 µM [9] [%] | inhibition of growth at 10 µM [10] [%] | inhibition of growth at 10 µM [11] [%] | inhibition of growth at 10 µM [12] [%] | inhibition of growth at 10 µM [13] [%] | inhibition of growth at 10 µM [14] [%] | inhibition of growth at 10 µM [15] [%] | inhibition of growth at 10 µM [16] [%] | inhibition of growth at 10 µM [17] [%] | inhibition of growth at 10 µM [18] [%] | inhibition of growth at 10 µM [19] [%] | inhibition of growth at 10 µM [20] [%] | also measured
COc1cc(NC(=O)CN2CCN(c3cc4c(cc3F)c(=O)c(C(=O)O)cn4C3CC3)CC2)cc(OC)c1OC | > 100 | 0 | 0 | 0 | 7.42 | 7.36 | 0 | 23.2 | 0 | 0 | 0 | 0 | 0 | 14.5 | 0 | 1.21 | 4.61 | 0.79 | 0 | 15.2 | inhibition of growth at 10 µM [21]: 0%; inhibition of growth at 10 µM [22]: 0%; inhibition of growth at 10 µM [23]: 0%; inhibition of growth at 10 µM [24]: 0%; inhibition of growth at 10 µM [25]: 2.65%; inhibition of growth at 10 µM [26]: 0%; inhibition of growth at 10 µM [27]: 8.5%; inhibition of growth at 10 µM [28]: 0%; inhibition of growth at 10 µM [29]: 3.24%; inhibition of growth at 10 µM [30]: 0%; inhibition of growth at 10 µM [31]: 0%; inhibition of growth at 10 µM [32]: 0%; IC50 [33]: > 100 µM; inhibition of growth at 10 µM [34]: 0%; inhibition of growth at 10 µM [35]: 0%; inhibition of growth at 10 µM [36]: 2.8%; inhibition of growth at 10 µM [37]: 9.38%; inhibition of growth at 10 µM [38]: 0%; inhibition of growth at 10 µM [39]: 8.4%; inhibition of growth at 10 µM [40]: 16.1%
COc1ccc(NC(=O)CN2CCN(c3cc4c(cc3F)c(=O)c(C(=O)O)cn4C3CC3)CC2)cc1 | 24.8 | 6 | 0 | 12 | 5.78 | 0 | 16.8 | 0 | 5.8 | 0 | 2.63 | 0 | 0 | 11.6 | 0 | 0.04 | 5.32 | 10.5 | 8.75 | 20.9 | inhibition of growth at 10 µM [21]: 17.8%; inhibition of growth at 10 µM [22]: 2.32%; inhibition of growth at 10 µM [23]: 2.72%; inhibition of growth at 10 µM [24]: 9.38%; inhibition of growth at 10 µM [25]: 5.67%; inhibition of growth at 10 µM [26]: 5.64%; inhibition of growth at 10 µM [27]: 13%; inhibition of growth at 10 µM [28]: 0%; inhibition of growth at 10 µM [29]: 16.9%; inhibition of growth at 10 µM [30]: 3.22%; inhibition of growth at 10 µM [31]: 26.4%; inhibition of growth at 10 µM [32]: 12.3%; IC50 [33]: > 100 µM; inhibition of growth at 10 µM [34]: 6.39%; inhibition of growth at 10 µM [35]: 0%; inhibition of growth at 10 µM [36]: 3.36%; inhibition of growth at 10 µM [37]: 24.5%; inhibition of growth at 10 µM [38]: 5.31%; inhibition of growth at 10 µM [39]: 0%; inhibition of growth at 10 µM [40]: 39%
